Laboratory results as given in patent US10800791B2, “Triazole ACC inhibitors and uses thereof” (Gilead Apollo, LLC, priority 2015, dated 2020).
In brackets after ≈: the same amount, converted by molar mass. Where two headings read alike, the source gives them in different places.

Key:
[1] = system: Phytophthora capsici (Pc); experiment: Growth inhibition assay of fungal pathogens, Pc; format: cell-based; conditions: 48 h
Procedure, shortened: (§1)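 Spores from sub-cultured plates were diluted in 17% V8 liquid medium and exposed to compound from DMSO stocks at final concentrations of 50, 10 and 2 ppm or 2, 0.4 and 0.08 ppm. OD600 and visual ratings at 48 h were compared with the 2% DMSO control to give percent growth inhibition.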

[2] = system: Rhizoctonia solani (Rs); experiment: Growth inhibition assay of fungal pathogens, Rs; format: cell-based; conditions: 48 h
[3] = system: C. albicans; experiment: Antifungal Activity Assay (broth microtiter MIC), C. albicans; format: cell-based, Candida albicans; conditions: Candida albicans, ATCC90028, 48 h
Procedure, shortened: (§2)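 Endpoint: lowest concentration visibly inhibiting growth relative to control after 48 h. Inoculum of 2.5×10^3 CFU/mL final in RPMI 1640+MOPS, prepared from overnight 35° C agar cultures; test compounds diluted in water to 128 μg/mL before plating.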

[4] = system: Septoria tritici (St); experiment: Growth inhibition assay of fungal pathogens, St; format: cell-based; conditions: Zymoseptoria tritici, 48 h, read-out: Concentration at 90% Inhibition St, Septoria tritici
Procedure, shortened: as §1

[5] = system: Fusarium moniliforme (Fm); experiment: Growth inhibition assay of fungal pathogens, Fm; format: cell-based; conditions: for Concentration at 90% Inhibition Fm: Fusarium moniliforme, growth inhibition at 48 hours vs 2% DMSO control; for IC90: Fusarium verticillioides, 48 h, read-out: Concentration at 90% Inhibition Fm
Procedure, shortened: as §1

[6] = system: C. krusei; experiment: Antifungal Activity Assay (broth microtiter MIC), C. krusei; format: cell-based, Candida krusei; conditions: Pichia kudriavzevii, ATCC6258, 48 h
Procedure, shortened: as §2

[7] = system: Diplodia maydis (Dm); experiment: Growth inhibition assay of fungal pathogens, Dm; format: cell-based; conditions: Stenocarpella maydis, 48 h, read-out: Concentration at 90% Inhibition Dm, Diplodia maydis
Procedure, shortened: as §1

[8] = system: C. parapsilosis; experiment: Antifungal Activity Assay (broth microtiter MIC), C. parapsilosis; format: cell-based, Candida parapsilosis; conditions: Lodderomyces parapsilosis, ATCC22019, 48 h
Procedure, shortened: as §2

[9] = system: Collectotrichum graminicola (Cg); experiment: Growth inhibition assay of fungal pathogens, Cg; format: cell-based; conditions: 48 h, read-out: Concentration at 90% Inhibition Cg, Collectotrichum graminicola
Procedure, shortened: as §1

[10] = system: Fusarium virguliforme (Fv); experiment: Growth inhibition assay of fungal pathogens, Fv; format: cell-based; conditions: 48 h
Procedure, shortened: as §1

[11] = target: human (hACC2) (Homo sapiens, UniProt O00763); experiment: In vitro ACC inhibition assay (ADP-Glo), hACC2; format: biochemical; conditions: 5 nM ACC2, 20 μM ATP, 20 μM acetyl-CoA
Sequence of human (hACC2) (O00763 whole entry): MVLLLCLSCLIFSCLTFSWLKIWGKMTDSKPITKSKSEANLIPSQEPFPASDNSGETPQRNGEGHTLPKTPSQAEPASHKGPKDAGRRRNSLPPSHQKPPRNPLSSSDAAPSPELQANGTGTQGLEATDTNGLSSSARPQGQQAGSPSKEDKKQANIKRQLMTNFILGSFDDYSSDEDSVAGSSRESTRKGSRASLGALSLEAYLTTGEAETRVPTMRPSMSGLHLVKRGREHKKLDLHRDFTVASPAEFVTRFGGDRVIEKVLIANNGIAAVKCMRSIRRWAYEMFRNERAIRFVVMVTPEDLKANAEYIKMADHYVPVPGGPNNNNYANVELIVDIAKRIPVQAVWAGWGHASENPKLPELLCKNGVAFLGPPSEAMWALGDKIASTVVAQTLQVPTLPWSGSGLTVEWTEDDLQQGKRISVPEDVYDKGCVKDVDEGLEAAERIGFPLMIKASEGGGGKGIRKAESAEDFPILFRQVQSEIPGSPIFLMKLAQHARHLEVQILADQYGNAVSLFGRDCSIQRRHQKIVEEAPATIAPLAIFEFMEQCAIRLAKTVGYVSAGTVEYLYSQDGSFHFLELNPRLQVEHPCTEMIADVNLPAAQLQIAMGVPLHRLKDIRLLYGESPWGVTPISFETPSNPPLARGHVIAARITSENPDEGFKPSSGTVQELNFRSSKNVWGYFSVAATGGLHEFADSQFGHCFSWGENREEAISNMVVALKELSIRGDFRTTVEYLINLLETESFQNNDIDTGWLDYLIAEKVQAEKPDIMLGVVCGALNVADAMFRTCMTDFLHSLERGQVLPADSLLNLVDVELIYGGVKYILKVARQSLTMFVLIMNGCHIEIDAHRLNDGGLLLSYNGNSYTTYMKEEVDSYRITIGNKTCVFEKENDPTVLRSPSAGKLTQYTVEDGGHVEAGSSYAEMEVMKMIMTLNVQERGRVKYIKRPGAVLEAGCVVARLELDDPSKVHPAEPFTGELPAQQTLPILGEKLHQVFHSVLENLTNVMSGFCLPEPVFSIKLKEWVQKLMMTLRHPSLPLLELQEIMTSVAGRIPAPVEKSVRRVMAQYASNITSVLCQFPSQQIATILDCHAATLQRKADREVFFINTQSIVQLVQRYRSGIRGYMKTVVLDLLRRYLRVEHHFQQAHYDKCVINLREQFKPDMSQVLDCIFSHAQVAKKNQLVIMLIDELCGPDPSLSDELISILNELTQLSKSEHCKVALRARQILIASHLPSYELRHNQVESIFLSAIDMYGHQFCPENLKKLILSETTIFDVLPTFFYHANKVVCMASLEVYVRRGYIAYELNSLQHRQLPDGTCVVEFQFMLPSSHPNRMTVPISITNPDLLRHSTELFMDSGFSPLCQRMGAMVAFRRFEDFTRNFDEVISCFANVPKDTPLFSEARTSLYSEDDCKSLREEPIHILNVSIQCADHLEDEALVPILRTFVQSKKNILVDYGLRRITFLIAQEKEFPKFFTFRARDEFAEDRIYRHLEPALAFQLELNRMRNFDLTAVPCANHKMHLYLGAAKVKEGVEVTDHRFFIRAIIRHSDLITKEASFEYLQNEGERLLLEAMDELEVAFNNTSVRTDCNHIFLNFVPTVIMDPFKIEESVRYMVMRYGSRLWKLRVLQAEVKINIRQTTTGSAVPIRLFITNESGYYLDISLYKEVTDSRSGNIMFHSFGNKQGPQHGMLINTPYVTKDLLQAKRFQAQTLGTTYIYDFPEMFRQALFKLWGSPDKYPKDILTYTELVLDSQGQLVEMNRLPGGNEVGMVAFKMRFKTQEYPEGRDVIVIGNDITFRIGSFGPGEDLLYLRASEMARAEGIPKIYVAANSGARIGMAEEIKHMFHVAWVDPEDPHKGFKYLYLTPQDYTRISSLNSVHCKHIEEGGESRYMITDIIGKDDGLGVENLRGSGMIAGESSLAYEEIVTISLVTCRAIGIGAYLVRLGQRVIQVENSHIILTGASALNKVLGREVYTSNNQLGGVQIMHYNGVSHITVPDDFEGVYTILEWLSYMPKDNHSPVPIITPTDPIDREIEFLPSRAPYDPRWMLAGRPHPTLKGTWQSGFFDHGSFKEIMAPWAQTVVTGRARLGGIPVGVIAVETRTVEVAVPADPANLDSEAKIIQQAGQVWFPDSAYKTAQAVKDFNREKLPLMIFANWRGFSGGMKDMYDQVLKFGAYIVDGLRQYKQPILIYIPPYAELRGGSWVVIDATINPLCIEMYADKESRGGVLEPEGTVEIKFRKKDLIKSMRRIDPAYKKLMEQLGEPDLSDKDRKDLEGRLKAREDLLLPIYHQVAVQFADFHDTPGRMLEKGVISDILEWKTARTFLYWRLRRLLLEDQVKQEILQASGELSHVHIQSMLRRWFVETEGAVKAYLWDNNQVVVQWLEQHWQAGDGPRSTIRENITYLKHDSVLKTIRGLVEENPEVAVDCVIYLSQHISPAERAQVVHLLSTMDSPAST
Description: The detailed procedure is as follows. […] 10 μL ADP glo reagent was added. […] 20 μL kinase detection reagent was added.

[12] = read-out: Concentration at 90% Inhibition Pc, Phytophthora capsici, growth inhibition at 48 hours vs 2% DMSO control
[13] = read-out: Concentration at 90% Inhibition Pc, Phytophthora capsici, growth inhibition vs 2% DMSO control at 48 hours
[14] = read-out: Concentration at 90% Inhibition Rs, Rhizoctonia solani, mycelial plugs, growth inhibition at 48 hours vs 2% DMSO control
[15] = read-out: Concentration at 90% Inhibition Rs, Rhizoctonia solani, mycelial plugs, growth inhibition vs 2% DMSO control at 48 hours
[16] = read-out: MIC, C. albicans ATCC 90028, Table 3a, 3 replicates, MIC recorded at 48 h
[17] = read-out: MIC, C. albicans ATCC 90028, Table 3b (additional results), 3 replicates, MIC recorded at 48 h
[18] = growth inhibition at 48 hours vs 2% DMSO control
[19] = growth inhibition vs 2% DMSO control at 48 hours
[20] = read-out: MIC, C. krusei ATCC 6258, Table 3a, 3 replicates, MIC recorded at 48 h
[21] = read-out: MIC, C. krusei ATCC 6258, Table 3b (additional results), 3 replicates, MIC recorded at 48 h
[22] = read-out: MIC, C. parapsilosis ATCC 22019, Table 3a, 3 replicates, MIC recorded at 48 h
[23] = read-out: MIC, C. parapsilosis ATCC 22019, Table 3b (additional results), 3 replicates, MIC recorded at 48 h
[24] = read-out: Concentration at 90% Inhibition Fv, Fusarium virguliforme, growth inhibition at 48 hours vs 2% DMSO control
[25] = read-out: Concentration at 90% Inhibition Fv, Fusarium virguliforme, growth inhibition vs 2% DMSO control at 48 hours

SMILES	IC90 [1, 12] [µg/mL]	IC90 [1, 13] [µg/mL]	IC90 [2, 14] [µg/mL]	IC90 [2, 15] [µg/mL]	MIC [3, 16] [µg/mL]	MIC [3, 17] [µg/mL]	IC90 [4, 18] [µg/mL]	IC90 [4, 19] [µg/mL]	Concentration at 90% Inhibition Fm [5]	IC90 [5] [µg/mL]	MIC [6, 20] [µg/mL]	MIC [6, 21] [µg/mL]	IC90 [7, 18] [µg/mL]	IC90 [7, 19] [µg/mL]	MIC [8, 22] [µg/mL]	MIC [8, 23] [µg/mL]	IC90 [9, 18] [µg/mL]	IC90 [9, 19] [µg/mL]	IC90 [10, 24] [µg/mL]	IC90 [10, 25] [µg/mL]	other results
CCNC(=O)C(C)(C)n1c(=O)c2c(C)c(-n3nccn3)sc2n(C[C@H](OC(C)C)c2cc(F)ccc2OC)c1=O [Compound I-3, (R)—N-ethyl-2-(1-(2-(5-fluoro-2-methoxyphenyl)-2-isopropoxyethyl)-5-methyl-2,4-dioxo-6-(2H-1,2,3-triazol-2-yl)-1,4-dihydrothieno[2,3-d]pyrimidin-3(2H)-yl)-2-methylpropanamide]	> 50	> 50	0.08 (≈ 0.14 µM)	0.08 (≈ 0.14 µM)	1.1 to 2 (≈ 1.92 to 3.49 µM)	1.01 to 2 (≈ 1.76 to 3.49 µM)	10 (≈ 17.5 µM)	> 50	AA (compound concentration of 0.08 ppm at 90% inhibition of fungal pathogens)	0.08 (≈ 0.14 µM)	0.25 to 1 (≈ 0.437 to 1.75 µM)	0.25 to 1 (≈ 0.437 to 1.75 µM)	0.4 (≈ 0.698 µM)	0.4 (≈ 0.698 µM)	1.1 to 2 (≈ 1.92 to 3.49 µM)	2.01 to 4 (≈ 3.51 to 6.98 µM)	0.4 (≈ 0.698 µM)	0.4 (≈ 0.698 µM)	0.4 (≈ 0.698 µM)	0.4 (≈ 0.698 µM)	IC50 ([11]; Table 2a): 0.005 to 0.01 µM; IC50 ([11]; Table 2b, additional results): 0.005 to 0.01 µM
COc1ccc(F)cc1[C@H](Cn1c(=O)n(C(C)(C)C(=O)NC(C)C)c(=O)c2c(C)c(-n3nccn3)sc21)OC(C)C [Compound I-4, (R)-2-(1-(2-(5-fluoro-2-methoxyphenyl)-2-isopropoxyethyl)-5-methyl-2,4-dioxo-6-(2H-1,2,3-triazol-2-yl)-1,4-dihydrothieno[2,3-d]pyrimidin-3(2H)-yl)-N-isopropyl-2-methylpropanamide]	> 50	> 50	0.08 (≈ 0.136 µM)	0.08 (≈ 0.136 µM)	0.25 to 1 (≈ 0.426 to 1.7 µM)	0.25 to 1 (≈ 0.426 to 1.7 µM)	2 (≈ 3.41 µM)	10 (≈ 17 µM)	AA (compound concentration of 0.08 ppm at 90% inhibition of fungal pathogens)	0.08 (≈ 0.136 µM)	0.25 to 1 (≈ 0.426 to 1.7 µM)	0.25 to 1 (≈ 0.426 to 1.7 µM)	0.08 (≈ 0.136 µM)	0.08 (≈ 0.136 µM)	0.25 to 1 (≈ 0.426 to 1.7 µM)	1.01 to 2 (≈ 1.72 to 3.41 µM)	0.08 (≈ 0.136 µM)	0.08 (≈ 0.136 µM)	0.4 (≈ 0.682 µM)	0.4 (≈ 0.682 µM)	IC50 ([11]; Table 2a): 0.005 to 0.01 µM; IC50 ([11]; Table 2b, additional results): 0.005 to 0.01 µM
COc1ccc(F)cc1[C@H](Cn1c(=O)n(C(C)(C)C(=O)N2CCOCC2)c(=O)c2c(C)c(-n3nccn3)sc21)OC(C)C [Compound I-5, (R)-1-(2-(5-fluoro-2-methoxyphenyl)-2-isopropoxyethyl)-5-methyl-3-(2-methyl-1-morpholino-1-oxopropan-2-yl)-6-(2H-1,2,3-triazol-2-yl)thieno[2,3-d]pyrimidine-2,4(1H,3H)-dione]	> 50	> 50	0.4 (≈ 0.651 µM)	0.4 (≈ 0.651 µM)	2.1 to 4 (≈ 3.42 to 6.51 µM)	2.01 to 4 (≈ 3.27 to 6.51 µM)	10 (≈ 16.3 µM)	> 50	AA (compound concentration of 0.08 ppm at 90% inhibition of fungal pathogens)	0.08 (≈ 0.13 µM)	1.1 to 2 (≈ 1.79 to 3.25 µM)	2.01 to 4 (≈ 3.27 to 6.51 µM)	2 (≈ 3.25 µM)	2 (≈ 3.25 µM)	2.1 to 4 (≈ 3.42 to 6.51 µM)	> 4.01	2 (≈ 3.25 µM)	2 (≈ 3.25 µM)	0.4 (≈ 0.651 µM)	0.4 (≈ 0.651 µM)	IC50 ([11]; Table 2a): 0.01 to 0.04 µM; IC50 ([11]; Table 2b, additional results): 0.01 to 0.04 µM
